Reference: paper PMC5372986, “Diminished Antimicrobial Peptide and Antifungal Antibiotic Activities against Candida albicans in Denture Adhesive” (Antibiotics, 2017)
Values after ≈ are worked out from the molar mass of the structure shown. Read-outs that look alike come from different tables or passages of the source. Bridge positions count the residues as written; N and C are the ends. Ends that are not written are not given here. Peptide text beside a SMILES is read from it.

Tests used:
[1] = system: C. albicans HMV4C; assay: microbe, parasite or virus in culture; conditions: for Activity in gels with 1.0% denture adhesive compared with gels without / Minimal inhibitory concentration (MIC): C. albicans HMV4C; for Activity in gels with 1.0% denture adhesive compared with gels without: result in words, Tukey HSD, 0.05 level; for MIC: Candida albicans, HMV4C
Method: (§1) C. albicans strains ATCC 64124 and HMV4C were used and cultivated as previously described. Their identities were verified (State Hygienic Laboratory, University of Iowa Research Park, Coralville, IA, USA). These cultures were adjusted to contain 1.2–3.7 × 10^6 CFU/mL in Roswell Park Memorial Institute (RPMI) 1640 medium.
(§2) The denture adhesive used was a standard, over-the-counter gel containing poly sodium-calcium mixed partial salt, petrolatum, cellulose gum, and mineral oil and was prepared as previously described. Denture adhesive was too viscous to use directly and was diluted to 1.0% for incorporation into the radial diffusion assay.
(§3) Each agent was reconstituted in distilled water with 0.01% acetic acid for resuspension to keep the agent in solution. Two-fold dilutions were prepared.
(§4) The radial diffusion assays were performed as described with the following unique modifications. Underlay agarose gels were prepared with and without 1.0% denture adhesive in square petri dishes (Electron Microscopy Sciences, Hatfield, PA, USA). Plates without 1.0% adhesive contained 12.5 mL of 10.0 mM sodium phosphate buffer adjusted to pH 7.4, 12.5 mL of 2.0% agarose (Agarose LE, Roche Diagnostics Corporation, Indianapolis, IN, USA) in 10.0 mM sodium phosphate adjusted to pH 7.4, and 1.0 mL of C. albicans culture per plate. Plates with 1.0% adhesive contained 12.5 mL of 2.0% dental adhesive in 10.0 mM sodium phosphate adjusted to pH 7.4, 12.5 mL 2.0% agarose (Agarose LE, Roche Diagnostics Corporation, Indianapolis, IN, USA) in 10.0 mM sodium phosphate adjusted to pH 7.4, and 1.0 mL of C. albicans culture. Wells of 2.0 mm in diameter were created and filled with 5.0 µL of AMP or antifungal antibiotic dilution (n = three replications per test). A blank of 0.01% acetic acid in distilled water was also included. The plates were incubated at 37 °C for 3 h. After incubation, 10.0 mL of overlay containing 1.0% agarose in 10.0 mM phosphate buffer with 6.0% RPMI 1640, was added to each plate. The plates were incubated at 37 °C overnight. At 24 h, antimicrobial activity was determined by measuring the zone of clearance around the center of each well and extrapolating MIC as described.
(§5) When MICs fell outside the range of the assay, we considered the MIC to be equal to the highest concentration used in the assay. […] One-way fixed-effects ANOVA models were fit to the µM MIC values. Pairwise group comparisons were conducted using the method of Tukey’s Honest Significant Differences (HSD). A 0.05 level was used to determine statistically significant differences. All analyses were conducted using JMP (Version 10.0, SAS, Cary, NC, USA).

[2] = system: C. albicans ATCC 64124; assay: microbe, parasite or virus in culture; conditions: for Minimal inhibitory concentration (MIC) / Activity in gels with 1.0% denture adhesive compared with gels without: C. albicans ATCC 64124; for Activity in gels with 1.0% denture adhesive compared with gels without: result in words, Tukey HSD, 0.05 level; for MIC: Candida albicans
Method: as §1, §2, §3, §4, §5

[3] = system: Candida albicans; conditions: broth microdilution, p < 0.05; cited from earlier work
From the text: Candida species infections can cause complications for individuals with dentures, such as denture stomatitis.

[4] = in both gels with or without 1.0% denture adhesive
[5] = Adhesive (1.0% denture adhesive in gel), radial diffusion, pH 7.4, 37 °C, read at 24 h, mean (standard error, n = 3)
[6] = Adhesive (1.0% denture adhesive in gel), radial diffusion, mean (standard error, n = 3)
[7] = No Adhesive, radial diffusion, mean (standard error, n = 3)

Row | Compound | Activity in gels with 1.0% denture adhesive compared with gels without ([1]; radial diffusion) | Minimal inhibitory concentration (MIC) [2, 4] [µM] | Activity in gels with 1.0% denture adhesive compared with gels without ([2]; radial diffusion) | Loss of antimicrobial activity in 1.0% denture adhesive [3] | Minimal inhibitory concentration (MIC) [1, 7] | other results
1 | OC(Cn1cncn1)(Cn1cncn1)c1ccc(F)cc1F [Fluconazole] | same | 3265.1 (≈ 1000 µg/mL) | same | did not | – | MIC ([1]; 24 h, pH 7.4, read-out: Minimal inhibitory concentration (MIC), C. albicans HMV4C, Adhesive (1.0% denture adhesive in gel), radial diffusion, pH 7.4, 37 °C, read at 24 h, mean (standard error, n = 3)): 8.1 µg/mL; MIC ([1]; 24 h, pH 7.4, read-out: Minimal inhibitory concentration (MIC), C. albicans HMV4C, No Adhesive, radial diffusion, agarose in 10.0 mM sodium phosphate pH 7.4, 37 °C, read at 24 h, mean (standard error, n = 3)): 3.9 µg/mL; MIC ([1]; read-out: Minimal inhibitory concentration (MIC), C. albicans HMV4C, Adhesive (1.0% denture adhesive in gel), radial diffusion, mean (standard error, n = 3)): 26.4 µM; MIC ([1]; read-out: Minimal inhibitory concentration (MIC), C. albicans HMV4C, No Adhesive, radial diffusion, mean (standard error, n = 3)): 12.7 µM; MIC ([2]; ATCC64124, 24 h, pH 7.4, read-out: Minimal inhibitory concentration (MIC), C. albicans ATCC 64124, Adhesive (1.0% denture adhesive in gel), radial diffusion, pH 7.4, 37 °C, read at 24 h, mean (standard error, n = 3)): > 1000 µg/mL; MIC ([2]; ATCC64124, 24 h, pH 7.4, read-out: Minimal inhibitory concentration (MIC), C. albicans ATCC 64124, No Adhesive, radial diffusion, pH 7.4, 37 °C, read at 24 h, mean (standard error, n = 3)): > 1000 µg/mL; MIC ([2]; ATCC64124, read-out: Minimal inhibitory concentration (MIC), C. albicans ATCC 64124, Adhesive (1.0% denture adhesive in gel), radial diffusion, mean (standard error, n = 3)): > 3270 µM; MIC ([2]; ATCC64124, read-out: Minimal inhibitory concentration (MIC), C. albicans ATCC 64124, No Adhesive, radial diffusion, mean (standard error, n = 3)): > 3270 µM; MIC ([2]; ATCC64124, read-out: Minimal inhibitory concentration (MIC), C. albicans ATCC 64124, in both gels with or without 1.0% denture adhesive): > 1000 µg/mL
2 | GIINTLQKYYCRVRGGRCAVLSCLPKEEQIGKCSTRGRKCCRRKK (disulfide 11-40, 18-33, 23-41 (inferred)) [HBD-3] | diminished activity | – | diminished activity | – | – | –
3 | IP-10: recombinant human CXCL10 (Peprotech) | diminished activity | – | diminished activity | – | 2.2 (0.0) µM | Minimal inhibitory concentration (MIC) [1, 5]: >200.0 (0.0) µg/mL; Minimal inhibitory concentration (MIC) [1, 6]: >23.1 (0.0) µM; Minimal inhibitory concentration (MIC) ([1]; No Adhesive, radial diffusion, agarose in 10.0 mM sodium phosphate pH 7.4, 37 °C, read at 24 h, mean (standard error, n = 3)): 18.6 (0.3) µg/mL; Minimal inhibitory concentration (MIC) [2, 5]: >1000.0 (0.0) µg/mL; Minimal inhibitory concentration (MIC) [2, 6]: >115.7 (0.0) µM; Minimal inhibitory concentration (MIC) ([2]; No Adhesive, radial diffusion, pH 7.4, 37 °C, read at 24 h, mean (standard error, n = 3)): 103.6 (3.2) µg/mL; Minimal inhibitory concentration (MIC) [2, 7]: 12.0 (0.4) µM
4 | CCCCCCCCCCCCCCC[C@@H](O)[C@@H](N)CO [dihydrosphingosine] | – | – | – | lost antimicrobial activity | – | –
5 | CCCCCCCCCCCCC/C=C/[C@@H](O)[C@@H](N)CO [sphingosine] | – | – | – | lost antimicrobial activity | – | –
6 | CCCCCCCCCCCCCC[C@@H](O)[C@@H](O)[C@@H](N)CO [phytosphingosine] | – | – | – | lost antimicrobial activity | – | –
7 | CC[C@H](C)[C@@H]1NC(=O)[C@H](CCCCN)NC(=O)[C@H]([C@@H](C)O)NC(=O)[C@H](Cc2ccccc2)NC(=O)[C@H]([C@@H](C)CC)NC(=O)[C@@H]2CCCN2C(=O)[C@@H]2CSSC[C@@H](C(=O)N[C@@H](CCCCN)C(=O)O)NC(=O)[C@@H]3CSSC[C@H](NC(=O)[C@H](CC(N)=O)NC(=O)[C@H](Cc4ccc(O)cc4)NC(=O)[C@H](Cc4c[nH]cn4)NC(=O)[C@@H](N)CC(=O)O)C(=O)N[C@@H](C(C)C)C(=O)N[C@@H](CO)C(=O)N[C@@H](CO)C(=O)NCC(=O)NCC(=O)N[C@@H](CCC(N)=O)C(=O)N[C@@H](CSSC[C@H](NC(=O)[C@H]([C@@H](C)O)NC(=O)CNC(=O)[C@H](CCC(N)=O)NC1=O)C(=O)N[C@@H](Cc1ccc(O)cc1)C(=O)N[C@@H](CCCNC(=N)N)C(=O)NCC(=O)N[C@@H](CCCCN)C(=O)N[C@@H](C)C(=O)N[C@@H](CCCCN)C(=O)N3)C(=O)N[C@@H](CC(C)C)C(=O)N[C@@H](Cc1ccc(O)cc1)C(=O)N[C@@H](CO)C(=O)N[C@@H](C)C(=O)N2 [HBD-1] (H-DHYNCVSSGGQCLYSACPIFTKIQGTCYRGKAKCCK-OH; disulfide 5-34, 12-27, 17-35 (inferred); N-terminus and C-terminus assumed) | – | > 254.1 | – | – | >254.1 (0.0) µM | Minimal inhibitory concentration (MIC) [1, 4]: > 254.1 µM
8 | CC[C@H](C)[C@H](NC(=O)[C@H](CCCCN)NC(=O)[C@H](CCC(=O)O)NC(=O)[C@H](CCCCN)NC(=O)[C@H](CO)NC(=O)[C@H](CCCCN)NC(=O)[C@H](CCCNC(=N)N)NC(=O)[C@H](Cc1ccccc1)NC(=O)[C@H](Cc1ccccc1)NC(=O)[C@H](CC(=O)O)NC(=O)CNC(=O)[C@H](CC(C)C)NC(=O)[C@@H](N)CC(C)C)C(=O)NCC(=O)N[C@@H](CCCCN)C(=O)N[C@@H](CCC(=O)O)C(=O)N[C@@H](Cc1ccccc1)C(=O)N[C@@H](CCCCN)C(=O)N[C@@H](CCCNC(=N)N)C(=O)N[C@H](C(=O)N[C@H](C(=O)N[C@@H](CCC(N)=O)C(=O)N[C@@H](CCCNC(=N)N)C(=O)N[C@H](C(=O)N[C@@H](CCCCN)C(=O)N[C@@H](CC(=O)O)C(=O)N[C@@H](Cc1ccccc1)C(=O)N[C@@H](CC(C)C)C(=O)N[C@@H](CCCNC(=N)N)C(=O)N[C@@H](CC(N)=O)C(=O)N[C@@H](CC(C)C)C(=O)N[C@H](C(=O)N1CCC[C@H]1C(=O)N[C@@H](CCCNC(=N)N)C(=O)N[C@H](C(=O)N[C@@H](CCC(=O)O)C(=O)N[C@@H](CO)C(=O)O)[C@@H](C)O)C(C)C)[C@@H](C)CC)C(C)C)[C@@H](C)CC [LL37] | diminished activity | > 222.4 | – | – | 30.4 (1.0) µM | Minimal inhibitory concentration (MIC) [1, 6]: >222.4 (0.0) µM; Minimal inhibitory concentration (MIC) [2, 6]: >222.4 (0.0) µM; Minimal inhibitory concentration (MIC) [2, 7]: >222.4 (0.0) µM
9 | C[C@H](NC(=O)[C@H](Cc1c[nH]cn1)NC(=O)[C@H](CO)NC(=O)[C@@H](N)CC(=O)O)C(=O)N[C@@H](CCCCN)C(=O)N[C@@H](CCCNC(=N)N)C(=O)N[C@@H](Cc1c[nH]cn1)C(=O)N[C@@H](Cc1c[nH]cn1)C(=O)NCC(=O)N[C@@H](Cc1ccc(O)cc1)C(=O)N[C@@H](CCCCN)C(=O)N[C@@H](CCCNC(=N)N)C(=O)N[C@@H](CCCCN)C(=O)N[C@@H](Cc1ccccc1)C(=O)N[C@@H](Cc1c[nH]cn1)C(=O)N[C@@H](CCC(=O)O)C(=O)N[C@@H](CCCCN)C(=O)N[C@@H](Cc1c[nH]cn1)C(=O)N[C@@H](Cc1c[nH]cn1)C(=O)N[C@@H](CO)C(=O)N[C@@H](Cc1c[nH]cn1)C(=O)N[C@@H](CCCNC(=N)N)C(=O)NCC(=O)N[C@@H](Cc1ccc(O)cc1)C(=O)O [Histatin 5] | diminished activity | > 329.0 | – | – | – | –
10 | GIGDPVTCLKSGAICHPVFCPRRYKQIGTCGLPGTKCCKKP (disulfide 8-37, 15-30, 20-38 (inferred)) [HBD-2] | diminished activity | – | diminished activity | – | – | –
